According to patent publication US20200289425A1, “CARBON DOT LIPOSOMES AND USES THEREOF” (National Taiwan University, priority 2017, published 2020):

Columns and labels:
[1] = system: cervical cancer cells Hela; experiment: Cancer cell growth, Alamar Blue assay, HeLa; type: cell-based; conditions: 48 hr culture
Excerpt: (§1) Cell lines and cell culture. A549, Hela, MCF-7, Huh7, C2BBe1, BxPC-3, A375.S2, CCRF-CEM, TrampC1 and NIH 3T3 cells were obtained from the American Type Culture Collection (ATCC; Manassas, Va., USA). A549, Hela, Huh7, A375.S2, TrampC1, and NIH 3T3 cells were maintained in Dulbecco's minimal essential medium (DMEM) supplemented with 1.5 g/L sodium bicarbonate,10% fetal bovine serum (FBS), 1.0% antibiotic-antimycotic, L-glutamine (2.0×10^−3 M), and 1.0% nonessential amino acids. MCF-7, BxPC-3 and CCRF-CEM cells were cultured in Roswell Park Memorial Institute (RPMI) medium supplemented with 10% FBS, and 1.0% antibiotic-antimycotic. C2BBe1 cells were grown in DMEM 1.5 g/L sodium bicarbonate, 1.0% antibiotic-antimycotic, L-glutamine (2.0×10^−3 M), and 1.0% nonessential amino acids, 10 mg/L human holo-transferrin, and 10% fetal bovine serum. The cell number and viability of the cells were determined by the trypan blue exclusion method and Alamar Blue assay, respectively.
(§2) The assay is designed to measure quantitatively the proliferation of cell by use of a fluorometric/colorimetric growth indicator based on detection of metabolic activity. Specifically, the alamar blue system incorporates an oxidation-reduction (REDOX) indicator that both fluoresces and changes color in response to chemical reduction of growth medium resulting from cell growth. As cells being tested grow, innate metabolic activity results in a chemical reduction of the system. Continued growth maintains a reduced environment while inhibition of growth maintains an oxidized environment. Reduction related to growth causes the REDOX indicator to change from oxidized (non-fluorescent, blue) form to reduced (fluorescent, red) form.
(§3) Cell viability was determined by Alamar Blue assay in accordance with the manufacturer's protocols.

[2] = system: colon cancer cells C2BBE1; experiment: Cancer cell growth, Alamar Blue assay, C2BBE1; type: cell-based; conditions: C2BBE1, 48 hr culture
Excerpt: as §1, §2, §3

breast cancer cells MCF7 = experiment: Cancer cell growth, Alamar Blue assay, MCF7; type: cell-based; conditions: MCF7, 48 hr culture
Excerpt: as §1, §2, §3

lung cancer cells A549 = experiment: Cancer cell growth, Alamar Blue assay, A549; type: cell-based; conditions: A549, 48 hr culture
Excerpt: as §1, §2, §3

hepatoma cells Huh7 = experiment: Cancer cell growth, Alamar Blue assay, Huh7; type: cell-based; conditions: Huh7, 48 hr culture
Excerpt: as §1, §2, §3

[3] = Degradation of drugs, standing in water for 48 hrs (HPLC or ICP MS); type: physicochemical; conditions: standing for 48 hrs
Protocol: In this example, the degradation of drug molecules encapsulated in the drug containing vesicles and that of free drugs were investigated. To this purpose, the drug containing vesicles of examples 1.2 or 1.3 or the free drug were placed in water, and let standing for 48 hrs, then the amounts of each drugs in the water were measured by HPLC or ICP MS.

A375.S2 cells = experiment: Cancer cell growth, Alamar Blue assay, A375; type: cell-based; conditions: A375, 48 hr culture
Excerpt: as §1, §2, §3

[4] = system: pancreatic cancer cells BxPC3; experiment: Cancer cell growth, Alamar Blue assay, BxPC3; type: cell-based; conditions: BxPC3, 48 hr culture
Excerpt: as §1, §2, §3

[5] = free drug; cited from earlier work

Row | Structure (SMILES) | IC50 ([1]; Homo sapiens) | IC50 ([2]; Homo sapiens) | IC50 (breast cancer cells MCF7; Homo sapiens) | IC50 (lung cancer cells A549; Homo sapiens) | IC50 (hepatoma cells Huh7; Homo sapiens, Huh-7) | Percentage of drugs remained un-degraded [3] | IC50 (A375.S2 cells; A375-S2) | IC50 ([4]; Homo sapiens, BXPC-3) | Solubility of the anti-cancer drug [5] | IC50 [1] | IC50 [2] | IC50 (breast cancer cells MCF7) | IC50 (lung cancer cells A549) | IC50 (hepatoma cells Huh7) | IC50 (A375.S2 cells) | IC50 [4]
1 | CC(C)C[C@H](NC(=O)[C@H](CCc1ccccc1)NC(=O)CN1CCOCC1)C(=O)N[C@@H](Cc1ccccc1)C(=O)N[C@@H](CC(C)C)C(=O)[C@@]1(C)CO1 [Carfilzomib] | 1.3 µM | 1.6 µM | 0.1 µM | 1.8 µM | 0.7 µM | 48.5% | 750 µM | 0.08 µM |  |  |  |  |  |  |  | 
2 | CC(=O)O[C@@]12CO[C@@H]1C[C@H](O)[C@@]1(C)C(=O)[C@H](O)C3=C(C)[C@@H](OC(=O)[C@H](O)[C@@H](NC(=O)OC(C)(C)C)c4ccccc4)C[C@@](O)([C@@H](OC(=O)c4ccccc4)[C@H]21)C3(C)C [Docetaxel] | 0.67 µM | 100 µM | 6.3 µM | 1 µM | 0.01 µM | 83.6% | 29 µM | 4.7 µM | 0.27 mg/L |  |  |  |  |  |  | 
3 | N.N.[Cl][Pt][Cl] [Cisplatin] |  |  |  |  |  |  |  |  |  | 3.1 µM | 11 µM | 33 µM | 6.5 µM | 6.3 µM | 9.2 µM | 4.8 µM
4 | Nc1ccn([C@@H]2O[C@H](CO)[C@@H](O)C2(F)F)c(=O)n1 [Gemcitabine] | 94 µM | 170 µM | 48 µM | 17 µM | 1 µM | 58.8% | 66 µM | 51 µM | 51,000 mg/L |  |  |  |  |  |  | 
5 | COc1cccc2c1C(=O)c1c(O)c3c(c(O)c1C2=O)C[C@@](O)(C(=O)CO)C[C@@H]3O[C@H]1C[C@H](N)[C@H](O)[C@H](C)O1 [Doxorubicin] | 1.7 µM | 13 µM | 2 µM | 0.04 µM | 0.49 µM | 69.5% | 0.75 µM | 0.58 µM | 2,600 mg/L |  |  |  |  |  |  | 
6 | CC(=O)O[C@H]1C(=O)[C@@]2(C)[C@H]([C@H](OC(=O)c3ccccc3)[C@]3(O)C[C@H](OC(=O)[C@H](O)[C@@H](NC(=O)c4ccccc4)c4ccccc4)C(C)=C1C3(C)C)[C@]1(OC(C)=O)CO[C@@H]1C[C@@H]2O [Paclitaxel] |  |  |  |  |  |  |  |  | 5.6 mg/L |  |  |  |  |  |  | 
